Laboratory results as given in ChEMBL document CHEMBL5543148, “Discovery of First-in-Class PROTAC Degraders of SARS-CoV-2 Main Protease” (J Med Chem, 2024).

Tests used:
SARS-CoV-2 [1] = assay: Antiviral activity against SARS-CoV-2 harboring NSP5 E166A mutant infected in human A549-ACE2 cells measured after 48 hrs by RT-PCR analysis; type: functional, organism-based, Severe acute respiratory syndrome coronavirus 2
SARS-CoV-2 [2] = assay: Antiviral activity against SARS-CoV-2 harboring recombinant live-attenuated delta3678 mGFP infected in human A549-ACE2 cells measured after 48 hrs by RT-PCR analysis; type: functional, organism-based; settings: Severe acute respiratory syndrome coronavirus 2, A549-ACE2, 48 h

Which results are given for `C[C@@H](OC(C)(C)C)[C@H](NC(=O)OCc1cccc(OCCCCCCOc2cccc3c2C(=O)N(C2CCC(=O)NC2=O)C3=O)c1)C(=O)N[C@@H](CC1CCCCC1)C(=O)N[C@H](C=O)C[C@@H]1CCNC1=O` (some centres not stated)?
EC50 (SARS-CoV-2 [1]): 460 nM; EC50 (SARS-CoV-2 [2]): 2200 nM
